Experimental data reported in patent US20240277829A1, “HIV-1 VACCINATION AND SAMT-247 MICROBICIDE TO PREVENT HIV-1 INFECTION” (priority 2021, published 2024).

What was measured:
[1] = system: human PBMC effector cells; assay: ADCC assay using SAMT-247; assay type: cell-based
Method: ADCC CEM-based assay. ADCC activity was assessed as previously described using EGFP-CEM-NKr-CCR5-SNAP cells that constitutively express GFP as targets (Rahman, M. A., et al, J Immunol 203, 2459-2471(2019)). Briefly, one million target cells were incubated with 50 μg of ΔV1 gp120 protein for 2 h at 37° C. After this coating, the target cells were washed and labeled with SNAP-SURFACE® ALEXA FLUOR® 647 (New England Biolabs, Connecticut, USA S9136S) per manufacturer recommendations for 30 min at RT. Plasma samples, heat inactivated at 56° C. for 30 min, were serially diluted (7 ten-fold dilutions starting at 1:10) and 100 μl were added to wells of a 96-well V-bottom plate (Millipore Sigma). 5000 target cells (50 μl) and 250,000 human PBMCs (50 μl) were added as effectors to each well to give an effector/target (E/T) ratio of 50:1. The plate was incubated at 37° C. for 2 h followed by two PBS washes. […] Specific killing was measured by loss of GFP from the SNAPAlexa647+ target cells. […] Normalized percent killing was calculated as: (killing in the presence of plasma-background)/(killing in the presence of KK17-background) X100. […]
ADCC assay using SAMT-247. […] SAMT-247 induced ADCC was measured by subtracting ADCC with no SAMT-247 treated effector cells from ADCC with SAMT-247 treated effector cells.

[2] = system: SIVmac251; details: cited from earlier work
[3] = system: CD14^+ cells; assay: Efferocytosis assay using SAMT-247 and gp120 pooled peptides; assay type: cell-based, macaque
Method: Efferocytosis assay. The frequency of efferocytotic CD14^+ cells was assessed by Efferocytosis Assay kit (#601770, Cayman Chemical company, Ann Arbor, MI, USA). CD14^+ cells were used as effector cells, whereas apoptotic neutrophils were used as target cells. The protocol was readapted in order to use CD14^+ monocyte cells rather than differentiated macrophages due to the low cell availability. CD14^+ cells were isolated from cryopreserved PBMCs (10×10^6 cells) collected following pre-study and 2 weeks post last immunization (week 14) or 5 weeks post last immunization (week 17) by using non-human primate CD14 microbeads (#130-091-097, Miltenyi Biotec Inc.) and following manufacturer instructions. At the end of the separation cells were counted and stained with CYTOTELL™ Blue provided by the kit and following manufacturer instructions. One unrelated macaque was used as source of neutrophils as target cells. Neutrophils were isolated as previously described (Khandpur, R., et al., Sci Transl Med 5, 178ra140 (2013)). Briefly, following isolation of PBMCs by Ficoll Plaque (GE Healthcare), the cellular pellet was added to an equal volume of 20% dextran in water, gently mixed, and incubated for 1 min. Approximately three volumes of PBS were added, mixed again and incubated in the dark for 50-60 minutes. At the end of incubation, the clear layer at the top of the tube containing neutrophils was collected. Cells were pelleted and treated with ACK lysing buffer (Quality Biological, Gaithersburg, MD, USA) for 5 min at 37° C., washed with R10 and counted. Neutrophils were stained with CFSE provided by the kit and following manufacturer instructions. The apoptosis of neutrophils was induced by treatment with Staurosporine Apoptosis inducer provided by the kit. Briefly, isolated cells were resuspended in R10 containing Staurosporine diluted 1:1000 and incubated at 37° C. for 3 hours. At the end of the incubation cells were washed twice with R10 and used for the efferocytosis assay. Subsequently, effector and apoptotic target cells were cultured alone (as controls) or cocultured at a ratio of one effector CD14^+ cell and three target apoptotic neutrophils. Cells were incubated at 37° C. for 12 hours. At the end of the coculture, cells were washed with PBS, fixed with 1% paraformaldehyde in PBS and acquired on a FACSYMPHONY™ A5 and examined using FACSDIVA™ software (BD Biosciences) by acquiring all stained cells. Data were further analyzed using FlowJo v10.1 (Treestar, Inc., Ashland, OR). The frequency of efferocytotic CD14^+ cells was determined as the frequency of double-positive cells for CYTOTELL™ Blue and CFSE on the CYTOTELL™ Blue positive monocytes.
Efferocytosis assay using SAMT-247 and gp120 pooled peptides. Efferocytosis was done as described above with the exception that SAMT-247 and/or gp120 pooled peptides were added to the co-culture for 12 hours. SAMT-247 induced Efferocytosis was measured by subtracting Efferocytosis with no SAMT-247 treated effector cells from Efferocytosis with SAMT-247 treated effector cells.

[4] = CD14^+ cells collected pre and two weeks after last immunization
[5] = sorted monocytes from PBMCs stimulated with gp120 peptides ± SAMT-247

CC(=O)Sc1ccccc1C(=O)NCCC(N)=O [SAMT-247]
Function ([1]; NKG2A^+, Blood and mucosa, PMA): >ADCC
ADCC activity mediated by the plasma of all vaccinated animals ([1]; effector human PBMCs pretreated with 100 nM SAMT-247 for 4 hours): significantly augments
effect in the SIVmac251 model ([2]; SAMT-247 alone 3 hours prior to each challenge, animals mock immunized with empty Ad vector and alum (Helmold Hait et al. 2020)): protective effect
risk of SIVmac251 acquisition ([2]; gel given four hours before challenge exposure (Helmold Hait et al. 2020)): unable to decrease
per-cell amount of engulfed apoptotic cells (MFI) [3, 4]: augmented
percentage of CD14^+ cells engulfing apoptotic cells [3, 4]: augmented
Function ([3]; Monocytes unstimulated or +gp120 peptides): >Efferocytosis
per-cell amount of cells engulfed (MFI) [3, 5]: reconstituted
percentage of CD14^+ cells engulfing apoptotic neutrophils [3, 5]: reconstituted
